Data on 103 compounds can be found in PubChem BioAssay AID849 (SRMLSC, 2007).

Molecules are shown by their SMILES. Active and inactive are the calls of the source. The rule behind the calls is not given here.

This assay relates to Saccharomyces cerevisiae lifespan shortening, growth inhibition. The assay can be described thus: Saccharomyces cerevisiae growth inhibition potency – dose response (AID 849).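 Note: yeast growth read as optical density after two days at 30 degrees C.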
As to `Cc1ccc(-c2nn(C(C)(C)C)c3ncnc(N)c23)cc1`, the IC50 – broadly, the concentration that gives 50% inhibition – was 1.72 µM.

For `CC1=NOC(=O)/C1=C\c1ccc(-c2ccc(Cl)cc2Cl)o1`, the IC50 was > 100 µM (inactive).

For the compound `Cc1cccc(Cn2ncc(Cl)c(Cl)c2=O)c1`, the half-maximal inhibitory concentration (IC50) was 37.4 µM.

For `O=c1c(-c2ccccc2)nc(-c2ccccc2)cn1O`, the IC50 is 15.1 µM.

In the case of `Cc1ccc(-c2nn3c(C)nnc3s2)cc1NC(=O)c1ccc(OC(C)C)cc1`, the IC50 is > 100 µM (inactive).

Regarding `CC1=C(C)/C(=N\OS(=O)(=O)c2ccccc2)C=CC1=O`, the IC50 was 30.3 µM.

Regarding `O=C1CC(N2CCN(c3nc4ccccc4s3)CC2)C(=O)N1Cc1cccs1` (stereo not drawn), the IC50 was > 100 µM (inactive).

Take `Cc1ccc2c(c1)c1c(n2C)-c2[nH]ncc2CC1`: the IC50 is 35.3 µM.

For `C/C(=N\NC(=O)c1ccc(CSc2cccc3cccnc23)cc1)C1CCCCC1`, the IC50 is 33.8 µM.

With `C=C(C)COc1ccc(-c2[nH]ncc2Oc2ccccc2OC)c(O)c1`, the IC50 was > 100 µM (inactive).

Regarding `O=C(CC(O)(C(F)(F)F)C(F)(F)F)Nc1ccc(Cl)c(Cl)c1`, the IC50 is 12 µM.

Consider `Cc1ccc(C(=O)O)cc1N=Cc1cc(Br)cc(Br)c1O`, for which the IC50 is 37.4 µM.

As to `CCOC(=O)c1c(N)sc(C(O)(C(F)(F)F)C(F)(F)F)c1-c1ccc(Cl)cc1`, the IC50 is > 100 µM (inactive).

`O=C(CCCSc1ccccc1)Nc1nc(-c2ccccn2)cs1`: the IC50 is 50.5 µM.

`Cc1cc(C)c2c(N=NN3CCCCC3)[nH]nc2n1`: the IC50 is 5.02 µM.

With `OC(CNCCC1C=Nc2ccccc21)Cn1c2ccc(Cl)cc2c2cc(Cl)ccc21` (stereo not drawn), the 50% inhibitory concentration (IC50) is 20 µM.

Regarding `COc1cc(OC)c(C2CC(=O)N3CN(C)CSC3=C2C#N)cc1OC` (stereo not drawn), the IC50 was > 100 µM (inactive).

`CCC(C)NC(=O)CS(=O)Cc1nc(-c2ccccc2C)oc1C` (stereo not drawn): the IC50 is > 100 µM (inactive).

Regarding `CC(C)CNC(=O)CN(C1CCCCC1)S(C)(=O)=O`, the IC50 is > 100 µM (inactive).

Regarding `O=c1oc2ccccc2c(O)c1/C=C1\C=Nc2ccccc21`, the IC50 is 18 µM.

Turning to `COc1ccccc1NC(=O)Cc1noc(CSc2cccc[n+]2[O-])n1`, the 50% inhibitory concentration (IC50) is 23.2 µM.

Turning to `CCCCCC/C(C)=C1/SC(=S)NC1=O`, the IC50 was > 100 µM (inactive).

Regarding `O=C(CN1CCN(c2ncc(C(F)(F)F)cc2Cl)CC1)NCCNc1ncc(C(F)(F)F)cc1Cl`, the IC50 is 42.5 µM.

As to `O=C1c2cccc3c(Cl)ccc(c23)C(=O)N1O`, the IC50 was 21.7 µM.

As to `O=c1oc2ccccc2cc1-c1cn2cccnc2n1`, the IC50 is > 100 µM (inactive).

In the case of `CC(=O)n1cc(C(C[N+](=O)[O-])SCCN)c2ccccc21` (stereo not drawn), the IC50 is 8.5 µM.

With `Cc1ccc(/C=C2\C(=O)NC(=S)N(c3ccccc3F)C2=O)s1`, the IC50 was 13.9 µM.

As to `O=c1c2sc(-c3ccccc3)cc2nc2n1CCC2`, the IC50 was 13.8 µM.

`CC1Cc2ccccc2N1C(=O)CSC1=NCCS1` (stereo not drawn): the IC50 was > 100 µM (inactive).

Take `Cc1cc(O)c(/C=N/Nc2ccccc2)c(=O)o1`: the half-inhibitory concentration (IC50) is 25.2 µM.

As to `Cc1ccc(/C=C2\C(=O)Nc3ccccc32)o1`, the IC50 is > 100 µM (inactive).

Turning to `O=C(CSC1=NCCS1)N1CCN(c2ccc(Cl)cc2)CC1`, the IC50 was > 100 µM (inactive).

Turning to `CC1(CCc2ccccc2)NC(=S)N(c2ccc(Cl)cc2)N1` (stereo not drawn), the IC50 is 42 µM.

Regarding `c1ccc(-c2ccc(-c3ccccn3)nn2)nc1`, the IC50 was 49.3 µM.

For the compound `O/N=C/c1cc(Cl)ccc1OCc1cccc2ccccc12`, the IC50 was > 100 µM (inactive).

As for `Cn1cccc1C(=O)NC(=O)CSc1cccc[n+]1[O-]`, the half-inhibitory concentration (IC50) was 21.8 µM.

Consider `CCN1CCN(c2ncnc3c2sc(=S)n3-c2ccccc2)CC1`, for which the IC50 is > 100 µM (inactive).

On to `COc1ccc2c(c1)S/C(=C\C(=O)c1ccncc1)N2C`, for which the IC50 is 5.32 µM.

As to `Oc1c(Cl)cc(Cl)cc1Sc1cc(Cl)cc(Cl)c1O`, the IC50 is 25.4 µM.

For the compound `O=C(/C(=C/O)N=Nc1ccccc1)c1ccncc1`, the IC50 was 14.5 µM.

With `CN(O)/C=c1/ccc2c(n1)C(=O)C=CC=2`, the IC50 is 8.11 µM.

On to `NNC(=O)c1ccc(COc2cccc3ccccc23)cc1`, for which the IC50 was 30.3 µM.

As for `CC(NC(=O)/C(C#N)=C/c1ccc(Cl)c([N+](=O)[O-])c1)c1ccccc1` (stereo not drawn), the IC50 was > 100 µM (inactive).

For `c1ccc2c(c1)oc1c(N3CCOCC3)ncnc12`, the IC50 is 32.1 µM.

`C=CCc1c(C)c(C#N)c2nc3ccccc3n2c1NCCN(C)C`: the IC50 was 44.5 µM.

As to `Cc1cccc(OCCn2cc(/C=N/NC(=O)c3ccncc3)c3ccccc32)c1`, the IC50 is > 100 µM (inactive).

Regarding `CC(C)C(=O)NC(c1ccccc1)c1cc([N+](=O)[O-])c2cccnc2c1O` (stereo not drawn), the IC50 was 14.2 µM.

In the case of `N#CSCC(=O)c1cccc2ccccc12`, the IC50 was 8.65 µM.

On to `C/C(=N\Nc1nc2c(s1)CCCC2)c1ccccc1`, for which the IC50 is 31.9 µM.

As for `CC1=C(C)CC2C(=O)N(c3cccc4ccccc34)C(=O)C2C1` (stereo not drawn), the IC50 is > 100 µM (inactive).

As for `CCCCCCCCCCn1c2c(c(=N)c3c1CCC3)CCC2`, the IC50 was 9.12 µM.

Take `COc1cc(C(=O)NC(=S)NNC(=O)c2cnccn2)cc(OC)c1OC`: the IC50 is 12.8 µM.

As for `Cc1sc2ncnc(N/N=C/c3ccccc3O)c2c1C`, the IC50 is 42.2 µM.

For the compound `C/C(=N\Nc1ccc(Cl)c(Cl)c1)c1ccc(-n2ccnc2)cc1`, the IC50 is 30.1 µM.

As to `CCN1/C(=C/c2ccc3ccc(C)cc3[n+]2CC)Sc2ccccc21`, the IC50 is 21.4 µM.

For the compound `O=c1cc(C(F)(F)F)[nH]c2c(C(F)(F)F)cccc12`, the IC50 was 9.03 µM.

With `Cc1cc(C)nc(/N=c2/ssnc2Cl)c1`, the IC50 is > 100 µM (inactive).

On to `Oc1c(Br)cc(Cl)cc1C=Nc1ccccc1Br`, for which the IC50 is 27.1 µM.

As for `Cc1ccc(O)c(C(=O)CC(=O)c2cccc(F)c2)c1`, the IC50 is > 100 µM (inactive).

For `Cc1cccc(OCCN2CSC(=S)N(C)C2)c1`, the IC50 was 13 µM.

Regarding `O=C(O)c1ccc(SCc2cnc(Cl)s2)cc1`, the half-maximal inhibitory concentration (IC50) was 7.4 µM.

For the compound `Cc1ccc2nc3c(nc2c1)-c1ccccc1C3=O`, the IC50 was 30.3 µM.

On to `CCOC(=O)CSc1nnc(CSc2nc(N)c3c(C)c(C)sc3n2)n1-c1ccccc1`, for which the IC50 is > 100 µM (inactive).

For `Oc1cccc2ccc(Nc3ccccn3)nc12`, the IC50 was 14 µM.

On to `Oc1ccc(/C=C/c2nc(-c3ccccc3O)n(-c3ccccc3)n2)cc1`, for which the IC50 was > 100 µM (inactive).

For the compound `CCSc1ncc(/C=N/Nc2ccc(Cl)cc2)n1C`, the IC50 was 36.7 µM.

As for `COc1ccc(C(=O)C(C)(C)NO)cc1`, the IC50 was 33.7 µM.

For `Clc1ccc(COC(Cn2ccnc2)c2ccc(Cl)cc2Cl)cc1` (stereo not drawn), the IC50 is 0.809 µM.

For `O=C1C2C3C=CC(CO)(O3)C2C(=O)N1c1ccccc1-c1ccccc1` (stereo not drawn), the IC50 is > 100 µM (inactive).

Take `Oc1ccc2ccccc2c1N=Nc1ccccn1`: the IC50 is 35.2 µM.

Turning to `Oc1cccc(C=NCc2ccccc2)c1O`, the half-maximal inhibitory concentration (IC50) is 9.17 µM.

As for `Cc1ccc(N2NC(C)(c3cccs3)NC2=S)cc1` (stereo not drawn), the IC50 was > 100 µM (inactive).

As for `Cc1nc(Cl)c2oc3ccccc3c2n1`, the IC50 is > 100 µM (inactive).

With `COc1ccc(-c2n[nH]c(C(F)(F)F)c2-c2cc3ccccc3o2)c(O)c1`, the IC50 was 26.1 µM.

`NC(N)=N/N=C/c1ccc(OCc2ccc(Cl)cc2)cc1`: the 50% inhibitory concentration (IC50) was 48.4 µM.

With `CC(C)c1ccc(NC(=S)NCCc2c[nH]c3ccccc23)cc1`, the IC50 is > 100 µM (inactive).

Consider `CC(C)(C)c1cc(NCCCn2ccnc2)n2ncc(-c3ccc(Cl)cc3)c2n1`, for which the IC50 is > 100 µM (inactive).

For the compound `O=c1oc2ccccc2c(N2CCCC2)c1CN1CCCC1`, the IC50 is > 100 µM (inactive).

`Cc1nc(Nc2ccc(Cl)c(Cl)c2)sc1C(=O)Nc1ccccc1`: the IC50 is > 100 µM (inactive).

Turning to `Clc1ccc(N=c2ssnc2Cl)cc1`, the IC50 was 25.6 µM.

Regarding `NC(N)=N/N=C/c1ccc(OCc2ccc(Cl)cc2Cl)cc1`, the IC50 was > 100 µM (inactive).

Consider `Cc1ccc(S(=O)(=O)Nc2ccc(SC(F)F)cc2)c(C)c1`, for which the IC50 was > 100 µM (inactive).

Turning to `O=[N+]([O-])c1ccc(C2Oc3ccccc3C3CC(c4ccccc4)=NN32)s1` (stereo not drawn), the IC50 was > 100 µM (inactive).

`COc1ccc(/C=C2/C(=O)ON=C2c2ccccc2)cc1OC`: the IC50 is 33.3 µM.

As for `Cc1cccc(OCCCOc2cccc3cccnc23)c1C`, the concentration for half-maximal inhibition (IC50) is 26.5 µM.

Regarding `O=[N+]([O-])c1cc(CN2CCCC2)c2cccnc2c1O`, the IC50 was > 100 µM (inactive).

`CCOc1ccc(/C=C/[N+](=O)[O-])c2ccccc12`: the IC50 is > 100 µM (inactive).

Regarding `CCc1ccc(/C=C/C(=O)c2cc(Br)ccc(=O)c2O)cc1`, the IC50 was 9.89 µM.

On to `O=C1c2ccccc2NC(c2ccc(-c3ccc(Br)cc3)o2)N1O` (stereo not drawn), for which the IC50 is 25 µM.

For `Cc1oc(-c2ccc3c(c2)OCCO3)cc1C(=O)O`, the IC50 is 16.8 µM.

For the compound `Cc1cccc(N=C2Sc3nc4c(C)c(C)ccc4cc3CN2CCN2CCOCC2)c1`, the IC50 was 44.7 µM.

As to `Cc1ccc(-c2nc(N)sc2-c2ccccc2)cc1C`, the IC50 was > 100 µM (inactive).

Take `Oc1c(I)cc(I)c2cccnc12`: the IC50 was 23.9 µM.

For the compound `CCC(C)/C(C)=N/NC(=O)c1ccc(COc2ccc(Cl)c(C)c2)cc1` (stereo not drawn), the concentration for half-maximal inhibition (IC50) is 21.9 µM.

Take `O=S(=O)(NC1CC2CCC1C2)c1ccc(Br)s1` (stereo not drawn): the IC50 was 2.07 µM.

For the compound `O=C(Nc1cccc(N=Cc2cc(Cl)cc(Br)c2O)c1)c1ccco1`, the IC50 was > 100 µM (inactive).

In the case of `Fc1ccc(N/N=C2/CC(c3ccccc3)Oc3ccccc32)c(F)c1` (stereo not drawn), the IC50 is 27.7 µM.

Take `COc1ccc2nc(/N=C(\N)NC(=O)Nc3ccccc3)nc(C)c2c1`: the IC50 is 50.4 µM.

With `Cc1ccc(-n2c(C)cc(C(=O)COC(=O)c3ccc[nH]c3=O)c2C)cc1C`, the IC50 is 3.98 µM.

On to `CC1CCc2c(sc3nc(CN4CCOCC4)nc(Sc4ccccc4)c23)C1` (stereo not drawn), for which the IC50 is > 100 µM (inactive).

On to `O=c1[nH][nH]cc1C=Nc1ccccc1O`, for which the IC50 is > 100 µM (inactive).

Regarding `O=C(Oc1c(Cl)cc(Cl)c2cccnc12)c1cccc([N+](=O)[O-])c1`, the IC50 was 2.95 µM.

On to `Cc1cccc(C(=O)Oc2csc(=S)n2C(=O)c2cccc(C)c2)c1`, for which the IC50 was > 100 µM (inactive).
